Assay: CLEAR OUTCOMES trial: LDL-cholesterol, hsCRP and other lipid/biomarker end points
Assay type: in vivo, human
Description: The CLEAR OUTCOMES trial was a randomized, placebo-controlled, double-blind trial that enrolled patients at 1250 sites in 32 countries. An independent Data Monitoring Committee reviewed safety and efficacy data during the trial.
Patients 18 to 85 years of age were eligible for enrollment if they met either of two criteria for increased cardiovascular risk, a prior cardiovascular event (secondary prevention) or clinical features that placed them at high risk for a cardiovascular event (primary prevention). (Nicholls S, Lincoff A M, Bays H E, et al. Rationale and design of the CLEAR-outcomes trial: Evaluating the effect of bempedoic acid on cardiovascular events in patients with statin intolerance. Am Heart J. 2021 May; 235: 104-112) All patients provided written informed consent. Patients had to report statin intolerance due to an adverse effect that started or increased during statin therapy and resolved or improved after statin therapy was discontinued. Patients could be enrolled if they tolerated a very low average daily statin dose (e.g., an average daily dose of rosuvastatin <5 mg, atorvastatin <10 mg, simvastatin <10 mg, lovastatin <20 mg, pravastatin <40 mg, fluvastatin <40 mg, or pitavastatin <2 mg). Other lipid-lowering therapies were permitted, including ezetimibe, niacin, bile acid resins, fibrates, and/or proprotein convertase subtilisin kexin type 9 (PCSK9) inhibitors. Full inclusion and exclusion criteria are provided in Nicholls et al. (Am Heart J. 2021).
Eligible patients entered a 4-week run-in period during which patients were treated with single-blind placebo. If patients were intolerant to placebo treatment or if adherence was <80% by tablet count, they were not eligible for randomization. Patients who successfully completed the run-in period were randomly assigned in a 1:1 ratio to receive bempedoic acid at an oral dose of 180 mg or matching placebo, administered daily. Beginning 6 months after enrollment, the central laboratory notified the investigator if the patient's LDL-cholesterol level was ≥25% higher than baseline. These patients were counseled on healthy dietary guidelines and reminded to take all lipid-regulating medications. If repeat testing confirmed that LDL-cholesterol value met the threshold criteria, the provider could adjust the lipid-lowering treatment regimen per standard of care and local guidelines.
This was an event-driven trial designed to provide at least 90% power to detect a 15% relative risk reduction for the primary composite end point at an overall two-sided significance level of 0.05. The trial required a minimum of 1620 primary composite events with >24 months of follow-up for all patients and at least 810 first key secondary end points. The average treatment duration was estimated to be 42 months and a lost-to-follow-up rate of 1% per year. Assuming a 3.59% annual event rate in the placebo group, enrollment of 12,600 patients was required, subsequently amended to 14,000. There were no interim efficacy analyses. A hierarchical approach was prespecified to evaluate sequentially each of the six key secondary efficacy end points with statistical significance at each step required to test the next hypothesis, thereby preserving the study-wise Type I error rate at 5%. All analyses were based on the intent-to-treat principle. The primary efficacy end point was analyzed using Cox proportional hazards model with treatment as a factor to generate the hazard ratio (HR) and 95% confidence interval (CI). The p-value was obtained from a log-rank test.

[1] = Inadequately Controlled Diabetes at Baseline, median
[2] = Inadequately Controlled Diabetes at Baseline, observed mean
[3] = median, 180 mg oral daily, N = 6992
[4] = observed mean, 180 mg oral daily, N = 6992

## CC(C)(CCCCCC(O)CCCCCC(C)(C)C(=O)O)C(=O)O [Bempedoic Acid, Bempedoic acid]
180 mg oral daily, N = 6992
  Median change from baseline to month 6 in hsCRP: −22.2%
All patients, median
  Change from baseline to Month 6 in fasting glucose: -1.0 mg/dL
  Change from baseline to Month 12 in fasting glucose: 0.0 mg/dL
All patients, observed mean
  Change from baseline to Month 6 in HbA1c (%): −0.003%
  Change from baseline to Month 12 in HbA1c (%): 0.04%
[1]
  Change from baseline to Month 6 in fasting glucose: -4.0 mg/dL
  Change from baseline to Month 12 in fasting glucose: -2.75 mg/dL
[2]
  Change from baseline to Month 6 in HbA1c (%): −0.20%
  Change from baseline to Month 12 in HbA1c (%): −0.06%
Adjusted for baseline HbA1c, pattern-mixed model, 180 mg oral daily
  Change from baseline to month 12 in HbA1C in patients with inadequately controlled type 2 diabetes mellitus: −0.04%
Adjusted for baseline LDL-C, pattern-mixed model, 180 mg oral daily, N = 6992
  Mean change from baseline to month 6 in mean LDL-C: −21.1%
After 6 months treatment, compared with placebo, median baseline 2.3 mg/L
  reduction of hsCRP: 21.6%
Difference vs placebo
  Change from baseline to month 12 in HbA1C in patients with inadequately controlled type 2 diabetes mellitus, Difference (95% CI): −0.03%
  Mean change from baseline to month 6 in mean LDL-C, Difference (95% CI): −20.3%
  Median change from baseline to month 6 in hsCRP, Difference (95% CI): −21.6%
[3]
  Percent change from baseline to Month 6 in triglycerides: −3.4%
  Percent change from baseline to Month 12 in triglycerides: −4.8%
[4]
  Percent change from baseline to Month 6 in HDL-C: −5.8% ±
  Percent change from baseline to Month 6 in non-HDL-C: −17.2% ±
  Percent change from baseline to Month 6 in total cholesterol: −16.9% ±
  Percent change from baseline to Month 12 in HDL-C: −5.7% ±
  Percent change from baseline to Month 12 in non-HDL-C: −17.1% ±
  Percent change from baseline to Month 12 in total cholesterol: −14.8% ±
  Percent change from baseline to Month 24 in non-HDL-C: −16.2% ±
